Experiment [1] can be described thus: 1,1-diphenyl-2-picrylhydrazyl test (DPPH test) for the removal of free radicals. It counts as biochemical. The settings on record: DPPH 100 μmol/l in methanol, absorption at 515 nm. As for the experimental part: The activity of 3,4-dihydroxymandelic acid as free-radical scavenger was compared with that of conventional free-radical scavengers. For this purpose, the 1,1-diphenyl-2-picrylhydrazyl test (DPPH test) for the removal of free radicals was used.
1,1-Diphenyl-2-picrylhydrazyl (DPPH) was dissolved in methanol to a concentration of 100 μmol/l. A series of dilutions of 3,4-dihydroxymandelic acid, vitamin C, α-tocopherol and 2,6-di-tert-butyl-4-methylphenol were prepared in methanol. Methanol was used as the control. 2500 μl of the DPPH solution were mixed with 500 μl of each test solution and the decrease in absorption at 515 nm was read until the decrease was less than 2% per hour. The activity of the test substances as free-radical scavengers was calculated using the following equation:
Activity as free-radical scavenger (%)=100−(absorption of the test compounds)/(absorption of the control)×100.
The activity of the free-radical scavengers (%) in a series of dilutions of test compounds was used to calculate, for each test compound, the effective relative concentration EC50 (based on the starting concentration of DPPH, EC=c (test compound)/c(DPPH)) of a test compound at which 50% of the free radical DPPH had been removed.
For orientation: DPPH is a stable violet radical that fades when it is reduced.

A short description of experiment [2]: accelerated autoxidation of lipids by air, Rancimat apparatus, soybean oil. The settings on record: for AOI in soybean oil at 100° C. with 0.05% test substance: soybean oil purified over alumina, AOI = IP(test)/IP(control); for AOI, soybean oil, 100° C.: single substance, c 0.025 % by wt. Here is the method:
(§1) The test system used was the accelerated autoxidation of lipids by air with or without antioxidant using the Rancimat apparatus (Rancimat is a registered trademark of Metrohm AG, Herisau, Switzerland). […] In a control sample, only solvent was added. […] The conductivity of this aqueous solution was continuously measured and documented. The oxidation of (unsaturated) fats proceeds only very slowly for some time and then suddenly increases. The time to the increase is referred to as the induction period (IP). The following equation was used to calculate the antioxidative index (AOI): AOI=IP(with test solution/IP(control sample) The results for the experiment in soybean oil that has been purified over alumina grade N at 100° C. are shown in Table 2: The experiments were carried out as described under Example 2. […] The AOI values measured for the combinations were compared with the AOI values calculated according to the following formula: […]

Experiment [3] in a line: accelerated autoxidation of lipids by air, Rancimat apparatus, squalene. The settings on record: for AOI in squalene at 80° C. with 0.005% of test substance: squalene purified over alumina, stabilized with 1 ppm α-tocopherol, 0.005% test substance; for AOI, squalene, 80° C.: single substance, c 0.0025 % by wt. Here is the method: as §1, with “squalene” for “soybean oil”, “N and stabilized with 1 ppm of α-tocopherol” for “N”, “80°” for “100°”, “3:” for “2:”

For experiment [4], the system named is ultraviolet light-induced sebum oxidation (squalene hydroperoxide, SQOOH). Nature of the experiment: protective action against ultraviolet light-induced sebum oxidation on the skin of subjects. It counts as in vivo, human. The settings on record: back skin of 12 subjects, UV 320 to 400 nm, 10 joules/cm^2; for c(H2O2)/c(SQ): 2 mg/cm^2 topical (acid: 200 mg in 200 ml 1,3-butylene glycol twice daily for 2 days; tocopherol: 0.2% ethanolic, once before irradiation); for % inhibition compared with the untreated area: squalene hydroperoxide, 2 mg/cm^2 topical. As for the experimental part: 200 mg of 3,4-dihydroxymandelic acid were dissolved in 200 ml of 1,3-butylene glycol (solution A). In addition, a 0.2% strength ethanolic solution of tocopherol was prepared (solution B). A dose of 2 mg/cm^2 of solution A was applied twice daily to the skin on the back of 12 subjects for 2 days in each case. Prior to the following irradiation, solution B was applied to a control area (2 mg/cm^2). The 2 treated and one untreated sites were irradiated with ultraviolet light (320 to 400 nm, 10 joules/cm^2). The test areas in each case were treated with 4 ml of ethanol for 2 min, the solutions were dried under nitrogen at room temperature and the residue was taken up in 1 ml of ethanol. The latter solutions were investigated by HPLC for their content of squalene (detection at 210 nm against standard) or squalene hydroperoxide (SQOOH, determination of the peroxide content using cytochrome C/luminol-enhanced chemiluminescence). The content of squalene peroxide was given relative to squalene in the form of picomols peroxide per fig of squalene.
The inhibition based on the untreated area was calculated using the following equation:
% inhibition=100·(cSQOOH untreated−cSQOOH, treated)/CSQOOH, untreated

As for `Cc1cc(C(C)(C)C)c(O)c(C(C)(C)C)c1` [2,6-Di-tert-butyl-4-methylphenol], the “EC50 (effective relative concentration at which 50% of the free radical DPPH had been removed, c(test compound)/c(DPPH))” value in experiment [1] was 0.240 mol/mol. Moreover, the “AOI in soybean oil at 100° C. with 0.05% test substance” value (“AOI … with 0.05% test substance” below) in experiment [2] came to 4.8. In experiment [3], the “AOI in squalene at 80° C. with 0.005% of test substance” value (from here on “AOI … with 0.005% of test substance”) stood at 38.

With `O=C(O)C(O)c1ccc(O)c(O)c1` (centres unmarked) [3,4-Dihydroxymandelic acid, 2-(3,4-dihydroxyphenyl)-2-hydroxyacetic acid], the “EC50 (effective relative concentration at which 50% of the free radical DPPH had been removed, c(test compound)/c(DPPH))” value in experiment [1] was determined as 0.062 mol/mol. Also, in experiment [2], the “AOI, soybean oil, 100° C.” value is reported as 5.4 and the “AOI … with 0.05% test substance” value came to 9.5. In experiment [3], the “AOI, squalene, 80° C.” value turned out to be 15 and the “AOI … with 0.005% of test substance” value amounted to 34. Moreover, in experiment [4], the “c(H2O2)/c(SQ)” value was found to be 618 ± 45 pmol/µg and the “% inhibition compared with the untreated area” value was found to be 33 ± 7%.

As for `O=C1O[C@H]([C@@H](O)CO)C(O)=C1O` [Vitamin C], the “EC50 (effective relative concentration at which 50% of the free radical DPPH had been removed, c(test compound)/c(DPPH))” value in experiment [1] was 0.270 mol/mol. The “AOI … with 0.05% test substance” value in experiment [2] was determined as 1.2. Besides, in experiment [3], the “AOI … with 0.005% of test substance” value turned out to be 0.7.

Turning to `Cc1c(C)c2c(c(C)c1O)CC[C@@](C)(CCC[C@H](C)CCC[C@H](C)CCCC(C)C)O2` [α-Tocopherol], in experiment [1], the “EC50 (effective relative concentration at which 50% of the free radical DPPH had been removed, c(test compound)/c(DPPH))” value was 0.250 mol/mol. In experiment [2], the “AOI, soybean oil, 100° C.” value was found to be 4.7 and the “AOI … with 0.05% test substance” value turned out to be 5.1. In addition, in experiment [3], the “AOI, squalene, 80° C.” value is on record as 23 and the “AOI … with 0.005% of test substance” value is reported as 39. Also, in experiment [4], the “c(H2O2)/c(SQ)” value was found to be 664 ± 19 pmol/µg and the “% inhibition compared with the untreated area” value was found to be 28 ± 6%.

Source of the values: patent US20030053967A1, “Use of 3,4-dihydroxy-mandelic acid for protecting against oxidative damage caused by ultra-violet light” (priority 2000, published 2003).
